Reference: patent publication US8951756B2, “Alkaline feed” (Hoffmann-La Roche Inc., priority 2010, dated 2015)
≈ marks a conversion by molar mass, not a printed value. Each block holds one compound with its values, some of them ahead of it.

How the values were obtained:
[1] = physchem; conditions: water
[2] = at 20 °C; cited from earlier work
[3] = physchem; conditions: aqueous buffer, thermodynamic from solid
Method: (§1) The calculated amount of Leucine was weighted into a 500 ml flask. After addition of 250 ml deionized water the solution is sterilized by autoclavation. Thereafter 250 ml of a 25% (w/v) ammonia solution is added and determined whether the Leucine was dissolved or not. After dissolution of the Leucine the final volume of the solution was determined.

[4] = Determination of solubility of Leucine in an ammonia solution; conditions: for soluble: 250 ml water + 250 ml 25% (w/v) ammonia solution
Method: as §1

Structure (SMILES): CC(C)C[C@H](N)C(=O)O [leucine]
solubility ([1]; 20 °C): < 50 mg/mL | solubility [3]: 76 mg/mL (≈ 579 mM) | solubility in alkaline solution relative to solubility in water ([4]; 12.5% (w/v) ammonia versus water at 20 °C): more than three times | soluble ([4]; Leucine concentration 17 g/l): yes | soluble ([4]; Leucine concentration 18 g/l): yes | soluble ([4]; Leucine concentration 19 g/l): yes | soluble ([4]; Leucine concentration 20 g/l): yes | soluble ([4]; Leucine concentration 21 g/l): yes | soluble ([4]; Leucine concentration 25 g/l): yes | soluble ([4]; Leucine concentration 30 g/l): yes | soluble ([4]; Leucine concentration 40 g/l): yes | soluble ([4]; Leucine concentration 50 g/l): yes | soluble ([4]; Leucine concentration 60 g/l): yes | soluble ([4]; Leucine concentration 70 g/l): yes | soluble ([4]; Leucine concentration 71 g/l): yes | soluble ([4]; Leucine concentration 72 g/l): yes | soluble ([4]; Leucine concentration 73 g/l): yes | soluble ([4]; Leucine concentration 74 g/l): yes | soluble ([4]; Leucine concentration 75 g/l): yes | soluble ([4]; Leucine concentration 76 g/l): yes | soluble ([4]; Leucine concentration 77 g/l): no

Structure (SMILES): CSCC[C@H](N)C(=O)O [methionine]
solubility ([1]; 20 °C): < 50 mg/mL

Structure (SMILES): N[C@@H](Cc1c[nH]c2ccccc12)C(=O)O [tryptophane]
solubility in water [2]: 10 mg/mL (≈ 49 mM) | solubility ([1]; 20 °C): < 50 mg/mL

Structure (SMILES): CC(C)[C@H](N)C(=O)O [valine]
solubility in water [2]: 88 mg/mL (≈ 751 mM)

Now from value to compound, other results behind:

solubility ([1]; 18 °C): < 50 mg/mL
Structure (SMILES): NC(=O)CC[C@H](N)C(=O)O [glutamine]

solubility ([1]; 20 °C): < 50 mg/mL
Structure (SMILES): N[C@@H](Cc1c[nH]cn1)C(=O)O [histidine]

solubility ([1]; 20 °C): < 50 mg/mL
Structure (SMILES): CC[C@H](C)[C@H](N)C(=O)O [isoleucine]
solubility in water [2]: 40 mg/mL (≈ 305 mM)

solubility ([1]; 20 °C): < 50 mg/mL
Structure (SMILES): N[C@@H](Cc1ccccc1)C(=O)O [phenylalanine]
